Laboratory results taken from patent US20250170111A1, “PYRIDINE BASED CHALCONE ANALOGS AS THERAPEUTIC AGENTS AND USE THEREOF” (QATAR UNIVERSITY, priority 2023, published 2025).
Like-named read-outs stand apart in the source and are kept apart here.

Experiments:
[1] = test system: CAM of chicken embryos; assay: Chorioallantoic membrane (CAM) angiogenesis assay; format: in vivo; conditions: in ovo, 48 hours post-treatment, vs control
Experimental: Fertilized white leghorn chicken eggs were obtained from Arab […] for Poultry Production, Doha, Qatar. Eggs were incubated in a rotary humidified MultiQuip Incubator at 37° C. with 60% humidity. Ethics approval was obtained from Institutional Animal Care & Use Committee and Institutional Bio-safety committee at Qatar University. […] Briefly, eggshells were disinfected with ethanol and a small opening was made in the shell over the air sac. Next, 200 μl of 1×PBS was added and the shell membrane was carefully removed. […] Subsequently, opened windows were sealed and the eggs were returned to a stationary incubator (FIG. 11). The effect of compounds on angiogenesis was monitored for 48 hours post-treatment and microscopic images of exposed (under coverslip) and unexposed area in each embryo were captured at equivalent magnification. Images were then analyzed using AngioTool software using the following parameters: vessel diameter thresholds at, vessel thickness at 7 and 10, removed small particles at 60, and filled holes at 183. The difference in blood vessel formation between treated and untreated embryos was assessed based on average vessel length, vessel percentage area and the total number of blood vessel junctions. […]

[2] = test system: PC3 and DU145; assay: Wound healing assay, PC3 and DU145; conditions: both cell lines; significant from 5 μM in PC3
[3] = test system: JNK1/2/3, ERK1/2, Akt; assay: Western blot of JNK, ERK and AKT-related biomarkers in PC3; conditions: PC3 cell line
[4] = test system: PC3 and DU145; assay: Alamar Blue cell viability, AR-negative PCa cell lines (stated for both); conditions: Homo sapiens, DU-145, read-out: IC50 against PC3 and DU145 cell lines
[5] = test system: E-cadherin; assay: Western blot of EMT-related biomarkers in DU145; conditions: DU145 cells
[6] = test system: DU145; assay: Cell cycle analysis (PI flow cytometry), DU145; format: cell-based, human; conditions: DU145, 48 hours; not statistically significant (P>0.05)
Experimental: Cells were seeded in 100 mm Petri dishes at a density of 1.5 million cells/dish and incubated in RPMI supplemented with 10% FBS overnight at 37° C. Complete culture media was then removed, and cells were starved in serum serum-free for 16 hours to synchronize cells at the G0/G1 phase of the cell cycle. Subsequently, cells were treated with the compounds 13, 15, and 16 or docetaxel for 48 hours. After treatment, floating and adherent cells were collected, washed with ice-cold PBS and centrifuged at 500 g for 10 minutes at 4° C. Next, cells were fixed with ice-cold 70% ethanol added drop wisely while vertexing and stored at −20° C. for at least 24 hours. On the day of analysis, cells were pelleted (centrifuged at 800 g for 10 minutes at 4° C.), washed twice with ice-cold PBS and counted. Around one million cells of each sample were resuspended in 500 μl of FxCycle PI/RNase Staining Solution® (Thermo Fisher Scientific, USA) supplemented with 200 μg/ml RNase and incubated for 50 minutes at 37° C. in a shaking water bath, protected from light. Following incubation, cells were immediately analyzed by BD FACSAria™ II Flow Cytometer, at least 50,000 events were acquired for each sample. The proportion of cells in each cell cycle phase: […]

[7] = test system: PC3; assay: Alamar Blue cell viability assay, PC3
[8] = test system: Bax, Bcl-2; assay: Western blot of apoptosis-related proteins in PC3 and DU145; conditions: PC3 and DU145, 48 hours of treatment
[9] = test system: DU145; assay: Alamar Blue cell viability assay, DU145; conditions: Homo sapiens, DU-145, 48 h
[10] = test system: PC3 and DU145; assay: Morphological examination, PC3 and DU145; format: cell-based, human; conditions: 5 μM
Experimental: Cells were seeded in 6 wells plate at a density of 150,000-200,000 cells/well and were incubated overnight. Then, cells were treated with the synthesized compounds at 5-10 μM concentration for 48 hours. Morphological changes were monitored using a DMi8 inverted microscope (Leica, Germany) and images were captured with a Leica MC170 HD camera.
The induction of apoptosis in cancer cells has been widely considered an important criterion in developing anticancer drugs. To confirm whether the synthesized compounds could reduce cell viability and induce apoptosis in PC3 and DU145, prostate cancer cells were treated with compounds 1-16 at 10 μM concentrations for 48 hours. Cells were examined for the formation of apoptotic bodies or death by phase-contrast microscopy (FIGS. 21 and 22). More importantly, cells were monitored for characteristic changes in cell morphology as they can provide insight into cell differentiation, invasiveness, survival, and genetic alterations.

[11] = test system: primary human dental bulb cells (ND); assay: Alamar Blue cell viability, normal primary dental cells; conditions: 48 hours, Mean ± SEM
[12] = test system: PC3; assay: Soft agar colony formation assay, PC3; format: cell-based, human; design: average size of detected colonies, PC3: unit not given here; conditions: 10 μM
Experimental: (§1) Anchorage-independent growth, a characteristic of transformed cells that correlate with in vivo tumorigenic potential, was assessed by soft agar assay. First, a 2% noble agar (Sigma-Aldrich) stock solution was prepared in deionized and autoclaved water. […] After 14 days, the average number of colonies in each well was counted manually under the microscope and confirmed by ImageJ; only colonies with an area larger than […] were counted to avoid the inclusion of non-proliferating dead cells. Besides, the size of colonies in each treatment condition was measured by ImageJ from at least six random fields per well.

[13] = test system: PC3 and DU145; assay: Soft agar colony formation assay, PC3 and DU145 (stated for both); format: cell-based, human; conditions: 5 and 10 μM, 14 days, both cell lines
Experimental: as §1

[14] = test system: PC3; assay: Annexin V / 7-AAD apoptosis assay, PC3; format: cell-based, human; conditions: 48 hours
Experimental: (§2) Cellular apoptosis was assessed by PE Annexin V apoptosis Detection Kit (BDPharmingen, USA) as per the manufacturer's protocol. Briefly, cells were seeded in 100 mm Petri dishes at a density of 1.5 million cells/dish and incubated overnight. […] Adherent and floating cells were then harvested by trypsin, washed twice by PBS, resuspended in binding buffer and stained with Phycoerythrin (PE) conjugated Annexin-V, 7-AAD or both stains for 15 minutes. After staining, samples were analyzed by BD FACSAria™ II Flow Cytometer and FlowJo software. First, the cell population, excluding debris, was gated with forward scatter (FSC-A) and side scatter (SSC-A). Then, doublets were excluded using FSC-height and FSC-width plots. […] Quad Gates were used to calculate the percentage of viable cells (annexin V low, 7-AAD low), early pro-apoptotic cells (annexin V high, 7-AAD low) and late apoptosis/dead cells (annexin V high, 7-AAD high).

[15] = test system: DU145; assay: Soft agar colony formation assay, DU145; format: cell-based, human; design: average size of detected colonies, DU145: unit not given here; conditions: 10 μM
Experimental: as §1

[16] = test system: DU145; assay: Annexin V / 7-AAD apoptosis assay, DU145; format: cell-based, human; conditions: 48 hours
Experimental: as §2

[17] = 14 days, in comparison to control

For `COc1cccc(C(=O)/C=C/c2cccc(-c3ccsc3)n2)c1` [Compound 16, (E)-1-(3-methoxyphenyl)-3-(6-(thiophen-3-yl)pyridin-2-yl) prop-2-en-1-one], the “effect on angiogenesis of the CAM” value [1] was “significant reduction in average vessel length, a total number of junctions, and vessel area”, the wound closure [2] was “dose-dependent reduction in wound closure” and the “expression of JNK1/2/3, ERK1/2, Akt and phosphorylated forms” value [3] was “significantly reduced the expression of JNK1/2/3 and phosphorylated ERK1/2”. For the same compound, the IC50 [4] was 4.32 to 6.47 µM, the “expression of E-cadherin” value [5] was “significantly upregulate the expression of E-cadherin” and the “effect on cell cycle distribution” value [6] was “slight accumulation in G2/M and sub G1 phases”. The “reduction in cell viability of PC3” value ([7]; 2.5 μM) was 47.5%, the IC50 ([7]; read-out: PC3 IC50, 48 hours, Mean ± SEM of three independent experiments) was 4.32 ± 0.37 µM and the Bax/Bcl-2 expression [8] was “significant increase in Bax/Bcl-2 ratio”. For the same compound, the IC50 ([9]; read-out: DU145 IC50) was 5.2 ± 0.46 µM, the IC50 ([9]; read-out: IC50 against DU145) was 5.2 µM and the cytotoxicity at 10 µM ([9]; read-out: reduction in cell viability of DU145) was 81%. The “effect on cell morphology” value [10] was “increased cell detachment, the formation of apoptotic bodies, and cell shrinkage”, the “ND LD50” value [11] was 24.67 ± 1.03 µM and the “reduction in number of colonies, PC3” value [12, 17] was 82.8%. For the same compound, the “average size of detected colonies, PC3” value ([12]; control 583.2) was 20.0, the “colony formation in soft agar (number and size)” value [13] was “significant reduction in both the total number of colonies and average colony size” and the “induction of apoptosis in PC3” value [14] was 34.7%. The “reduction in number of colonies, DU145” value [15, 17] was 84.9%, the “average size of detected colonies, DU145” value ([15]; control 196.0) was 18.7 and the “induction of apoptosis in DU145” value [16] was 47.8%.
